From EP4722212A1, “NOVEL COMPOUND FOR INHIBITING PROTEIN KINASES AND PHARMACEUTICAL COMPOSITION COMPRISING SAME” (Magicbullettherapeutics Co., Ltd., priority 2023, dated 2024)
Read-outs that look alike come from different tables or passages of the source.

Key:
Test in all cases: Kinase panel
Type in all cases: biochemical
PRKX = PRKX (Homo sapiens, UniProt P51817); conditions: read-out: residual enzyme activity
In short: (§1)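 Biochemical profiling at one dose (1 µM) across a full kinase panel; % activity remaining derived for each enzyme; those at 40% or lower retained as hits.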

STK22D/TSSK1 = STK22D/TSSK1 (Homo sapiens, UniProt Q9BXA7); conditions: STK22D/TSSK1, 1 µM; read-out: residual enzyme activity
In short: as §1

AKT3 = AKT3 (Homo sapiens, UniProt Q9Y243); conditions: AKT3, 1 µM; read-out: residual enzyme activity
In short: as §1

AKT1 = AKT1 (Homo sapiens, UniProt P31749); conditions: AKT1, 1 µM; read-out: residual enzyme activity
In short: as §1

MEK3 = MEK3 (Homo sapiens, UniProt P46734); conditions: MEK3, 1 µM; read-out: residual enzyme activity
In short: as §1

STK21/CIT = STK21/CIT (Homo sapiens, UniProt O14578); conditions: read-out: residual enzyme activity
In short: as §1

PBK/TOPK = PBK/TOPK (Homo sapiens, UniProt Q96KB5); conditions: read-out: residual enzyme activity
In short: as §1

TYRO3/SKY = TYRO3/SKY (Homo sapiens, UniProt Q06418); conditions: read-out: residual enzyme activity
In short: as §1

TESK2 = TESK2 (Homo sapiens, UniProt Q96S53); conditions: TESK2, 1 µM; read-out: residual enzyme activity
In short: as §1

TYK2 = TYK2 (Homo sapiens, UniProt P29597); conditions: TYK2, 1 µM; read-out: residual enzyme activity
In short: as §1

CDK16/CYCLIN Y (PCTAIRE) = CDK16/CYCLIN Y (PCTAIRE) (Homo sapiens, UniProt Q00536); conditions: read-out: residual enzyme activity
In short: as §1

IRAK1 = IRAK1 (Homo sapiens, UniProt P51617); conditions: IRAK1, 1 µM; read-out: residual enzyme activity
In short: as §1

FYN = FYN (Homo sapiens, UniProt P06241); conditions: read-out: residual enzyme activity
In short: as §1

TRKB = TRKB (Homo sapiens, UniProt Q16620); conditions: read-out: residual enzyme activity
In short: as §1

MEK2 = MEK2 (Homo sapiens, UniProt P36507); conditions: MEK2, 1 µM; read-out: residual enzyme activity
In short: as §1

AKT2 = AKT2 (Homo sapiens, UniProt P31751); conditions: AKT2, 1 µM; read-out: residual enzyme activity
In short: as §1

CAMK1B = CAMK1B (Homo sapiens, UniProt Q6P2M8); conditions: read-out: residual enzyme activity
In short: as §1

CAMK2A = CAMK2A (Homo sapiens, UniProt Q9UQM7); conditions: read-out: residual enzyme activity
In short: as §1

TLK2 = TLK2 (Homo sapiens, UniProt Q86UE8); conditions: TLK2, 1 µM; read-out: residual enzyme activity
In short: as §1

ABL2/ARG = ABL2/ARG (Homo sapiens, UniProt P42684); conditions: read-out: residual enzyme activity
In short: as §1

IKKA/CHUK = IKKA/CHUK (Homo sapiens, UniProt O15111); conditions: read-out: residual enzyme activity
In short: as §1

HIPK2 = HIPK2 (Homo sapiens, UniProt Q9H2X6); conditions: HIPK2, 1 µM; read-out: residual enzyme activity
In short: as §1

BRSK2 = BRSK2 (Homo sapiens, UniProt Q8IWQ3); conditions: BRSK2, 1 µM; read-out: residual enzyme activity
In short: as §1

MAPKAPK2 = MAPKAPK2 (Homo sapiens, UniProt P49137); conditions: MAPKAPK2, 1 µM; read-out: residual enzyme activity
In short: as §1

YSK4/MAP3K19 = YSK4/MAP3K19 (Homo sapiens, UniProt Q56UN5); conditions: YSK4/MAP3K19, 1 µM; read-out: residual enzyme activity
In short: as §1

RET = RET (Homo sapiens, UniProt P07949); conditions: read-out: residual enzyme activity
In short: as §1

MEK1 = MEK1 (Homo sapiens, UniProt Q02750); conditions: MEK1, 1 µM; read-out: residual enzyme activity
In short: as §1

TGFBR2 = TGFBR2 (Homo sapiens, UniProt P37173); conditions: TGFBR2, 1 µM; read-out: residual enzyme activity
In short: as §1

SRPK2 = SRPK2 (Homo sapiens, UniProt P78362); conditions: SRPK2, 1 µM; read-out: residual enzyme activity
In short: as §1

DDR2 = DDR2 (Homo sapiens, UniProt Q16832); conditions: DDR2, 1 µM; read-out: residual enzyme activity
In short: as §1

CKIG3 = CKIG3 (Homo sapiens, UniProt Q9Y6M4); conditions: CKIG3, 1 µM; read-out: residual enzyme activity
In short: as §1

SGK3/SGKL = SGK3/SGKL (Homo sapiens, UniProt Q96BR1); conditions: read-out: residual enzyme activity
In short: as §1

P38D/MAPK13 = P38D/MAPK13 (Homo sapiens, UniProt O15264); conditions: read-out: residual enzyme activity
In short: as §1

TAOK1 = TAOK1 (Homo sapiens, UniProt Q7L7X3); conditions: TAOK1, 1 µM; read-out: residual enzyme activity
In short: as §1

Sequence of YSK4/MAP3K19 (Q56UN5 whole entry): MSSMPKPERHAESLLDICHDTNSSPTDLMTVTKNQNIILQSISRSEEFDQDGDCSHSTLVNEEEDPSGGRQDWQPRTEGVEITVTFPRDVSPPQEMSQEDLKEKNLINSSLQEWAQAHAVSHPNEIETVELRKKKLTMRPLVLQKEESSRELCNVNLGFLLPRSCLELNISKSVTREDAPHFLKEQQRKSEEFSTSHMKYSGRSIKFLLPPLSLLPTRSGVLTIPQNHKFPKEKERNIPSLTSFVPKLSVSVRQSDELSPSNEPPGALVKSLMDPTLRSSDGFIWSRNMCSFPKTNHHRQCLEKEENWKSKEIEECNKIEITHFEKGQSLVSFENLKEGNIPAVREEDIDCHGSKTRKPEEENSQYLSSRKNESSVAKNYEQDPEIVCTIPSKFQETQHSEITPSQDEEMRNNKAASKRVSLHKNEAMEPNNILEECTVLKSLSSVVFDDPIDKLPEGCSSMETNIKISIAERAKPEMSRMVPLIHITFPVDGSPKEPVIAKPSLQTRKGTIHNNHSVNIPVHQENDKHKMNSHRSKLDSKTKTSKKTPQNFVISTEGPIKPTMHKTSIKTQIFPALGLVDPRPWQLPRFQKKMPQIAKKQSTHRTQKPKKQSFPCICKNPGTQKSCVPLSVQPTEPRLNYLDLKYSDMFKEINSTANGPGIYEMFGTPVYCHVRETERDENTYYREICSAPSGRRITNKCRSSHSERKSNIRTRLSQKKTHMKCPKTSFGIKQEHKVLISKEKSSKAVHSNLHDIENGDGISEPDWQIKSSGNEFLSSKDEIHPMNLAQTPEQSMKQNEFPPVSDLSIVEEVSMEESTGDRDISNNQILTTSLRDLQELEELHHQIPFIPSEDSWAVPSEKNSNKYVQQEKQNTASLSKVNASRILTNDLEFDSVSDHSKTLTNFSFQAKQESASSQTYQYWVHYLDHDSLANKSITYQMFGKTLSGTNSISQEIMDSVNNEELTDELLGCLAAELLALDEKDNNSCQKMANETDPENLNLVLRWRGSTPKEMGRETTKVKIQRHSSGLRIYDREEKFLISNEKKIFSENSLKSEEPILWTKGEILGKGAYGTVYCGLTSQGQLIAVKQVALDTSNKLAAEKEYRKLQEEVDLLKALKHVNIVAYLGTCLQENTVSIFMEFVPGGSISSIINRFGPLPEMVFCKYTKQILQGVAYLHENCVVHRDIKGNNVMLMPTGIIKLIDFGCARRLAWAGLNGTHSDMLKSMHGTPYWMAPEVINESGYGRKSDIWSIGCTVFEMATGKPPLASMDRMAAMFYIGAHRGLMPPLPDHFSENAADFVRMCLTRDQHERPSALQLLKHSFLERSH
Sequence of PRKX (P51817 whole entry, species assumed): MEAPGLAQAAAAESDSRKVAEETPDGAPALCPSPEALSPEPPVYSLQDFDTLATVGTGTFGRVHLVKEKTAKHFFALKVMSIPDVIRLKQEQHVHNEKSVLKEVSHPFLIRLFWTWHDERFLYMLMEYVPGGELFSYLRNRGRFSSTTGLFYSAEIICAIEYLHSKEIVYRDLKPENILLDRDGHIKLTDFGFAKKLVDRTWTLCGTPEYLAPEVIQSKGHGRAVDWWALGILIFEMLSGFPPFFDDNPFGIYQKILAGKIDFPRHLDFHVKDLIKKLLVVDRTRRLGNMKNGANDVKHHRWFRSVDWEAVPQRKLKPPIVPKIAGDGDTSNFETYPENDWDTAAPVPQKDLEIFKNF
Sequence of BRSK2 (Q8IWQ3 whole entry, species assumed): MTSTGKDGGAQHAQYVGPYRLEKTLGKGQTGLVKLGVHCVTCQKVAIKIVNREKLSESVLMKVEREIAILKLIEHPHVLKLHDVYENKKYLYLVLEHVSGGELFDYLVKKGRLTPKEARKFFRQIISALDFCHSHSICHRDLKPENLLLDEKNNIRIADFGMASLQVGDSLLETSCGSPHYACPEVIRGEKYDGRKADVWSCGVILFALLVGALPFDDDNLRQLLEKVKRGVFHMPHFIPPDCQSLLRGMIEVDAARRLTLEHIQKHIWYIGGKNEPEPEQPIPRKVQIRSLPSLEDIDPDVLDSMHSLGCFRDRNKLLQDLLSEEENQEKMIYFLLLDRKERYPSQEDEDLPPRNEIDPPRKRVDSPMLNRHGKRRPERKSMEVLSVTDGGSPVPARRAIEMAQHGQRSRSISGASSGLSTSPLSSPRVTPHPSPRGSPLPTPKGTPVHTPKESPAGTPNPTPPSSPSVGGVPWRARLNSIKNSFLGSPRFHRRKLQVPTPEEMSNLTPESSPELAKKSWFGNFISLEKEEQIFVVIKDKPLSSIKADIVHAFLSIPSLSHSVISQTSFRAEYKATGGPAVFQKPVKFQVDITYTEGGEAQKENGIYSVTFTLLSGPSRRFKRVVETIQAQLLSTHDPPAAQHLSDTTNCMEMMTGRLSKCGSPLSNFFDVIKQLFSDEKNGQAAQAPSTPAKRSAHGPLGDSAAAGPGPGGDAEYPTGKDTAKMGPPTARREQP
Sequence of MEK1 (Q02750 whole entry, species assumed): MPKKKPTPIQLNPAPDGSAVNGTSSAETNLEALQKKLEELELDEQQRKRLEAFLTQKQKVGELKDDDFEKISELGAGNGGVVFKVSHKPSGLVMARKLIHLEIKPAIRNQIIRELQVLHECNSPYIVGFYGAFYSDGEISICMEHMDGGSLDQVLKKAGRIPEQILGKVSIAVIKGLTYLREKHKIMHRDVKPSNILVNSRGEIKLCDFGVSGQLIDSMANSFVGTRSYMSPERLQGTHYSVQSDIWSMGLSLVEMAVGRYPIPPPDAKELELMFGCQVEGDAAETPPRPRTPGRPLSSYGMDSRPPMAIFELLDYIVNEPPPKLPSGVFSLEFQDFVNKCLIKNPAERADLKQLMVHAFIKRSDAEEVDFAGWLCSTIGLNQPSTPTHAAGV
Sequence of TESK2 (Q96S53 whole entry, species assumed): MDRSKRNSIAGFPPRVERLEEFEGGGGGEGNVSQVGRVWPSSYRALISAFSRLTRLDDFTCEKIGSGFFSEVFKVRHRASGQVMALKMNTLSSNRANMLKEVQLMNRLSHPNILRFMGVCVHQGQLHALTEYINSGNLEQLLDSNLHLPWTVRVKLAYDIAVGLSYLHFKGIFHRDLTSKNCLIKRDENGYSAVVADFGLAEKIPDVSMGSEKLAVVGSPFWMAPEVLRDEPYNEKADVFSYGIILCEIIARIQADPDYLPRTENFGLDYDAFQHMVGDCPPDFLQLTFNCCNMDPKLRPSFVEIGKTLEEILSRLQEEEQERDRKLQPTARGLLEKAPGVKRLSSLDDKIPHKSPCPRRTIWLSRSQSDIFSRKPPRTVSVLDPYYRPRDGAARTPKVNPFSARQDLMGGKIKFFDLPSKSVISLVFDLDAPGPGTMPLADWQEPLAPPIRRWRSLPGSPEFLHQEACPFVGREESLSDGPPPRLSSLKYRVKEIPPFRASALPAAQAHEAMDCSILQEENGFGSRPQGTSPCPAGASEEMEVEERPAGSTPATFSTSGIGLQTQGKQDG
Sequence of CAMK1B (Q6P2M8 whole entry): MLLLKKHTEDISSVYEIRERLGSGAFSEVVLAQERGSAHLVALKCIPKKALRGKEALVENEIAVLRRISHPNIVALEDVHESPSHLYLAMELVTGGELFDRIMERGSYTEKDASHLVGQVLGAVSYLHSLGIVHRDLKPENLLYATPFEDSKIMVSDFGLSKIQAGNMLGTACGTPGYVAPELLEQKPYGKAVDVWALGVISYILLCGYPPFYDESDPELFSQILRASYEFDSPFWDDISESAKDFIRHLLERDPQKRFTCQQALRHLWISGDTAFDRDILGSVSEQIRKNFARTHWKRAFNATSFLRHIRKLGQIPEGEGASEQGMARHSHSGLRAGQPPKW
Sequence of HIPK2 (Q9H2X6 whole entry, species assumed): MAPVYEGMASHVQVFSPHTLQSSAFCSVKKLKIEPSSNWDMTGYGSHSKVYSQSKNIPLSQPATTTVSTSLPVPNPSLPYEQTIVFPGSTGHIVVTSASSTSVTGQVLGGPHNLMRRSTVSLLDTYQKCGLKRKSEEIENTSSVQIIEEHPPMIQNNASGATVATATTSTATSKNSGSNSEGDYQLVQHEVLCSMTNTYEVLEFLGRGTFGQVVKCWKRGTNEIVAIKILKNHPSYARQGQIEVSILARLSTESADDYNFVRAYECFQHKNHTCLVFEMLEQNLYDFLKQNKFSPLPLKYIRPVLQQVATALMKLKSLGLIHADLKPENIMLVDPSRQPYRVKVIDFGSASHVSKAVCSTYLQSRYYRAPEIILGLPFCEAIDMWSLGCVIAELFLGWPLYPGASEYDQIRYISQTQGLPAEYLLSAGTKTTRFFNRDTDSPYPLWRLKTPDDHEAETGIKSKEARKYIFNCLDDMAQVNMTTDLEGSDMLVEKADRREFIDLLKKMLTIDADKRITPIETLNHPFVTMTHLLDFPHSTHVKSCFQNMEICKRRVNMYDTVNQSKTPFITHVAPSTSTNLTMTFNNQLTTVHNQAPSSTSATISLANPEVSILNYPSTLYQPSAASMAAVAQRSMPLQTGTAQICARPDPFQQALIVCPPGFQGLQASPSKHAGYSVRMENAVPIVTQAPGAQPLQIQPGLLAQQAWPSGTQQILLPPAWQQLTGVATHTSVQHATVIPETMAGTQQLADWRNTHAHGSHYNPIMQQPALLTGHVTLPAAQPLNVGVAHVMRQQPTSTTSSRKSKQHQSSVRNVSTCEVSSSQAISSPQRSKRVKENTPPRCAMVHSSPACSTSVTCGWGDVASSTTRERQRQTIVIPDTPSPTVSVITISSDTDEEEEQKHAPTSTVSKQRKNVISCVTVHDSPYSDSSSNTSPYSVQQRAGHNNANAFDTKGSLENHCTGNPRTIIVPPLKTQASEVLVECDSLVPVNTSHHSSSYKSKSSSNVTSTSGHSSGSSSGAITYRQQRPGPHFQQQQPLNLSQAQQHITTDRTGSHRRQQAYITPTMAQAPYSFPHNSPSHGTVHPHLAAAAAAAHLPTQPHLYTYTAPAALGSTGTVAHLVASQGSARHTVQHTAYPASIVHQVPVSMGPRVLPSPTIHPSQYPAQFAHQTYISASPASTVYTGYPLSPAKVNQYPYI

SMILES	remaining activity at 1 µM (PRKX) [%]	remaining activity at 1 µM (STK22D/TSSK1) [%]	remaining activity at 1 µM (AKT3) [%]	remaining activity at 1 µM (AKT1) [%]	remaining activity at 1 µM (MEK3) [%]	remaining activity at 1 µM (STK21/CIT) [%]	remaining activity at 1 µM (PBK/TOPK) [%]	remaining activity at 1 µM (TYRO3/SKY) [%]	remaining activity at 1 µM (TESK2) [%]	remaining activity at 1 µM (TYK2) [%]	remaining activity at 1 µM (CDK16/CYCLIN Y (PCTAIRE)) [%]	remaining activity at 1 µM (IRAK1) [%]	remaining activity at 1 µM (FYN) [%]	remaining activity at 1 µM (TRKB) [%]	remaining activity at 1 µM (MEK2) [%]	remaining activity at 1 µM (AKT2) [%]	remaining activity at 1 µM (TLK2) [%]	remaining activity at 1 µM (ABL2/ARG) [%]	remaining activity at 1 µM (IKKA/CHUK) [%]	remaining activity at 1 µM (HIPK2) [%]	also measured
Cc1cn(-c2cc(C(=O)Nc3ccc(C)c(N4Cc5cnc(NC6CC6)nc5C5(CC5)C4=O)c3)cc(C(F)(F)F)c2)cn1 [Compound 8, N-(3-(2'-(cyclopropylamino)-7'-oxo-5'H-spiro[cyclopropane-1,8'-pyrido[4,3-d]pyrimidine]-6'(7'H)-yl)-4-methylphenyl)-3-(4-methyl-1H-imidazol-1-yl)-5-(trifluoromethyl)benzamide]	> 40	> 40	> 40	> 40	> 40	> 40	> 40	> 40	≤ 40	≤ 40	> 40	> 40	≤ 40	≤ 40	> 40	> 40	> 40	≤ 40	> 40	> 40	remaining activity at 1 µM (CAMK1B; CAMK1B): > 40%; remaining activity at 1 µM (CAMK2A; CAMK2A): > 40%; remaining activity at 1 µM (BRSK2): > 40%; remaining activity at 1 µM (MAPKAPK2): > 40%; remaining activity at 1 µM (YSK4/MAP3K19): ≤ 40%; remaining activity at 1 µM (RET): ≤ 40%; remaining activity at 1 µM (MEK1): > 40%; remaining activity at 1 µM (TGFBR2): > 40%; remaining activity at 1 µM (SRPK2): > 40%; remaining activity at 1 µM (DDR2): ≤ 40%; remaining activity at 1 µM (CKIG3): > 40%; remaining activity at 1 µM (SGK3/SGKL): > 40%; remaining activity at 1 µM (P38D/MAPK13; P38D/MAPK13, 1 µM): > 40%; remaining activity at 1 µM (TAOK1): ≤ 40%
Cc1ccc(Nc2ncc3c(n2)C2(CC2)C(=O)N(c2cc(NC(=O)c4cccc(C(F)(F)F)c4)ccc2C)C3)cn1 [Compound 51, N-(4-methyl-3-(2'-((6-methylpyridin-3-yl)amino)-7'-oxo-5'H-spiro[cyclopropane-1,8'-pyrido[4,3-d]pyrimidine]-6'(7'H)-yl)phenyl)-3-(trifluoromethyl)benzamide]	> 40	> 40	> 40	> 40	> 40	> 40	> 40	≤ 40	≤ 40	≤ 40	> 40	> 40	≤ 40	≤ 40	> 40	> 40	> 40	≤ 40	> 40	> 40	remaining activity at 1 µM (CAMK1B; CAMK1b): > 40%; remaining activity at 1 µM (CAMK2A; CAMK2a): > 40%; remaining activity at 1 µM (BRSK2): > 40%; remaining activity at 1 µM (MAPKAPK2): > 40%; remaining activity at 1 µM (YSK4/MAP3K19): ≤ 40%; remaining activity at 1 µM (RET): ≤ 40%; remaining activity at 1 µM (MEK1): > 40%; remaining activity at 1 µM (TGFBR2): > 40%; remaining activity at 1 µM (SRPK2): > 40%; remaining activity at 1 µM (DDR2): ≤ 40%; remaining activity at 1 µM (CKIG3): > 40%; remaining activity at 1 µM (SGK3/SGKL): > 40%; remaining activity at 1 µM (P38D/MAPK13; P38d/MAPK13, 1 µM): > 40%; remaining activity at 1 µM (TAOK1): ≤ 40%
